Data from article PMC11847541, “Liver fatty acid binding protein FABP1 transfers substrates to cytochrome P450 4A11 for catalysis” (The Journal of Biological Chemistry, 2025).

Columns and labels:
[1] = molecular target: T1, P450 4A11 (Homo sapiens, UniProt Q02928); experiment: Ketoconazole trap experiment for lipid koff from P450 4A11; type: binding; design: made in house; host or cells: E. coli
T1 sequence (Q02928 5-519): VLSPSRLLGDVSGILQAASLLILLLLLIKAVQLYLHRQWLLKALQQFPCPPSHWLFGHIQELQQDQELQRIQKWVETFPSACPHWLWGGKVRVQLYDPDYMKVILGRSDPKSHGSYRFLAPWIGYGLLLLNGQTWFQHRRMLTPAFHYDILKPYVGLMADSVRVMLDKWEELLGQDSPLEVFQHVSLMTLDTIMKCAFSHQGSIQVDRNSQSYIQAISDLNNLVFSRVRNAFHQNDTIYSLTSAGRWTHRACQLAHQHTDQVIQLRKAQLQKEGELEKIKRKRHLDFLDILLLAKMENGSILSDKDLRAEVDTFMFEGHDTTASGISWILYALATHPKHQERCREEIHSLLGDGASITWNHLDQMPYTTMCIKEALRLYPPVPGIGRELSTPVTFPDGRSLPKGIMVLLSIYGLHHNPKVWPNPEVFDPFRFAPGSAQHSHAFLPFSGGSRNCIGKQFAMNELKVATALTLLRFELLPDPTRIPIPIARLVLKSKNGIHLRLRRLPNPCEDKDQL
Procedure: To assess the rates of lipid egress from P450 4A11 (k-1, k-3), lipids were tested in conjunction with the general P450 inhibitor ketoconazole in a “trap experiment” as we have recently described to estimate koff rates for P450–sterol complexes ([27], [28]). P450–lipid complexes were rapidly mixed with ketoconazole, and the spectral shift from 390 nm (substrate bound, type I) to 418 nm (inhibitor bound, type II) P450 was monitored over time (Fig. 9A, progression from blue to red curve). This spectral shift arises from the direct interaction of the azole nitrogen lone pair with the heme iron (forming a hexacoordinated heme species). This experiment is performed with an excess of ketoconazole (100 μM) to facilitate rapid capture of unliganded P450 yielded at the moment of lipid dissociation, such that ketoconazole kon approximates the lipid koff.
(The concentration of lipid added during preincubation reflects the affinity of the complex determined in equilibrium binding titrations; Fig. 8). The first phase of each trace relates to the ketoconazole capture of the unliganded enzyme (the majority–but not all–P450 was substrate bound at equilibrium), and the second phase correlates to the capture of enzyme yielded by the egress of the bound lipid (i.e., estimate of koff). […] The rates extracted for the second phase (koff) were 0.070 ± 0.006 s^−1 (k-3) and 0.20 ± 0.01 s^−1 (k-1), respectively.
Determination of P450 4A11 koff rates with lipids was performed using a ketoconazole “trap” experiment by adapting previously published protocols ([27], [28]). Solutions of (A) ketoconazole (200 μM) and (B) P450 4A11 (4 μM) and either palmitate (20 μM) or 16-OH palmitate (8 μM) were prepared (2 ml each, all in 100 mM potassium phosphate buffer [pH 7.4]) and loaded into the drive syringes of an OLIS stopped-flow spectrophotometer with the same procedure described for the P450 4A11 kon determination (aforementioned). The experiment was initiated by mixing equal volumes of each solution together, and the rate of ketoconazole binding to P450 is given by ΔA418-A390 (displacement of lipid [decrease in A390] because of ketoconazole binding [increase in A418]) and is a maximum value for the rate at which the P450–lipid complex dissociated (koff) (Fig. S14).
Figure S14. Absorbance traces used to determine P450 4A11 palmitate koff rate. The basis of the ketoconazole trap experiment is the spectral transition from substrate-bound (“Type I” shift, A390 (blue trace)) to inhibitor-bound (“Type II” shift, A418 (red trace)) P450 (Fig. 9A). The formation of ketoconazole-bound P450 (inhibitor complex) from palmitate-bound P450 (substrate complex) is over the course of the experiment shown above. The rate of formation of inhibitor-bound P450 is subtracted from the rate of decay of substrate-bound P450, and the resulting plot (Fig. 9D) is fit to a biexponential equation to estimate the dissociation rate (koff) of palmitate from the P450 4A11.

[2] = molecular target: T1, P450 4A11; type: binding; design: made in house; host or cells: E. coli; conditions: for substrate transfer rate from FABP1 to P450 4A11: FABP1, DAUDA, palmitate 0.2 μM each, P450 4A11 2 μM
Procedure: Set up as a reverse experiment of the fluorescence displacement assay (Fig. 5), this experiment involved mixing equimolar concentrations (0.2 μM) of DAUDA, FABP1, and palmitate to form a solution ( FDS↔FD+S↔FS+D ) with low fluorescence (Fig. 5A). That solution was then rapidly mixed with an excess of P450 4A11 (2 μM), and the gain of fluorescence was monitored (i.e., as substrate was transferred from FABP1 to P450, either as FDS + P450 → FD + P450-S or as FS + P450 + D → P450-S + F + D → FD; Fig. 5A). As expected, we observed a weak but reproducible stimulation of fluorescence in this experiment (n = 6 shots), and the data were fit to single exponential equation yielding a substrate transfer rate (k6) of 4.2 ± 0.9 s^−1 (Fig. 11).
Figure 11 Rate of palmitate transfer (ktransfer) from FABP1 to P450 4A11. A stoichiometric mixture of FABP1, DAUDA, and palmitate (0.2 μM) was mixed with P450 4A11 (2 μM), and the gain of fluorescence (>420 nm) was monitored (i.e., as FDS + E → FD + ES, Fig. 5A). Six traces were averaged and fit to a single exponential equation, yielding a rate of 4.2 ± 0.9 s^−1. […] replicate experiments were averaged to generate the trace. DAUDA, 11-dansylaminoundecanoic acid; FABP1, fatty acid binding protein.
To estimate the rate of transfer of palmitate from FABP1 to P450 4A11, a mixture of palmitate, FABP1, and DAUDA (0.4 μM, each component) was mixed against a solution of P450 4A11 (4 μM). All components were diluted twofold to their final concentrations in the mixing process. The experiment was performed with stopped-flow parameters identical to the experiments of FABP1 with lipids (aforementioned), and data were processed in the same manner, with the exception that a smoothing factor of 0.4 was applied to the data (in Microsoft Excel) prior to curve fitting.

[3] = P450 4A11 2 μM preincubated with lipid, ketoconazole 100 μM

Compound	first phase rate (k1), ketoconazole capture of unliganded enzyme [1, 3] [s⁻¹]	second phase rate = koff from P450 4A11 [1, 3]	kon to P450 4A11 (k3) ([1]; calculated from koff and Kd)	koff ([1]; P450 4A11 2 μM preincubated with lipid, ketoconazole 100 μM, read-out: second phase rate = koff from P450 4A11) [s⁻¹]	Kd ([1]; quotient of experimentally determined rates, read-out: Kd estimate for P450 4A11 as koff/kon) [µM]	substrate transfer rate from FABP1 to P450 4A11 [2] [s⁻¹]	rate of transfer to P450 4A11 relative to transfer to phospholipid membranes [2] [fold]
O=C(O)CCCCCCCCCCCCCCCO [16-OH Palmitate (C16), 16-hydroxypalmitate]	1.3 ± 0.4	0.070 ± 0.006 (k-3) s^−1	2.6 × 10^5 (k3) M^−1 s^−1				
CCCCCCCCCCCCCCCC(=O)O [Palmitate (C16), palmitate]	2.9 ± 0.1			0.2 ± 0.01	4.8	4.2 ± 0.9	
FABP1: delipidated recombinant liver fatty acid binding protein with C-terminal hexahistidine tag						~5	~1000
